In this assay the target is T1, Arachidonate 5-lipoxygenase-activating protein (Homo sapiens, UniProt P20292).
T1 sequence (P20292 whole entry): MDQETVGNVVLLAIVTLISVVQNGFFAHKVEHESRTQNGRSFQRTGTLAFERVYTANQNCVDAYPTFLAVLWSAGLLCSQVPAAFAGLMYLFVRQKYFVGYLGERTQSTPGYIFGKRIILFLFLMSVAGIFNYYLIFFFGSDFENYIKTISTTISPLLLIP
In words: Homogeneous Time Resolved Fluorescence Assay: The assay below is used to test the modulatory activity of compounds against FLAP. Human and mouse FLAP-encoding DNA was amplified by polymerase chain reaction and cloned into pFastBacl (Invitrogen) with a NH2-terminal 6-His tag for expression in Spodoptera frugiperda (Sf-9) cells. FLAP-containing membranes were prepared as was a FITC-labeled FLAP ….

By Ki is commonly meant the dissociation constant of the complex between target and ligand, obtained from inhibition or displacement. Low readings indicate tighter binding, high ones weaker binding.

The structures appear in SMILES notation.

Description: Homogeneous Time Resolved Fluorescence Assay: The assay below is used to test the modulatory activity of compounds against FLAP. Human and mouse FLAP-encoding DNA was amplified by polymerase chain reaction and cloned into pFastBacl (Invitrogen) with a NH2-terminal 6-His tag for expression in Spodoptera frugiperda (Sf-9) cells. FLAP-containing membranes were prepared as was a FITC-labeled FLAP modulator [5-[({[2-(2-{3-[3-(tert-Butylsulfanyl)-1-(4-chlorobenzyl)-5-(quinolin-2-ylmethoxy)-1H-indol-2-yl]-2,2-dimethylpropanoyl}hydrazino)-2-oxoethyl]sulfanyl}acetyl)amino]-2-(6-hydroxy-3-oxo-3H-xanthen-9-yl)benzoic acid]. The FLAP binding assay is performed in HTRF format (homogeneous time resolved fluorescence).

For `C[C@@H]([C@@H](O)c1ccccc1)N(C)S(=O)(=O)c1ccccc1-c1ccc(-c2ccc(N)nc2)c(F)c1`, the Ki worked out at 3.2 nM.

Source of the values: ChEMBL document CHEMBL3638391, “Flap modulators” (2015).
